Test results reported in patent publication US20210038577A1, “THIOREDOXIN REDUCTASE INHIBITORS FOR USE IN THE TREATMENT OF CANCER” (Cinda Pharma AB, priority 2018, published 2021).
Where “and” joins values, the source holds several entries; their conditions need not be identical. Equal entries are not always repeated.

Experiments:
[1] = system: TM00098 patient-derived xenografts (TNBC); assay: TM00098 patient derived TNBC xenografts in humanized Hu-CD34-NSG mice, tumor growth; assay type: in vivo
Excerpt: FIG. 11: Primary tumor growth of TM00098 patient derived triple-negative breast cancer xenografts in humanized immunocompetent NSG mice (Hu-CD34-NSG) treated with OT-1096 or vehicle control. A) Humanized NSG mice (Hu-CD34-NSG) engrafted with CD34+ cells from donor 5243 and subsequently implanted with TNBC PDX TM00098. B) Humanized NSG mice (Hu-CD34-NSG) engrafted with CD34+ cells from donor 5252 and subsequently implanted with TNBC PDX TM00098. Female NSG mice were implanted with human CD34+ hematopoietic stem cells from multiple donors and the level of human CD45+ cells were measured in the peripheral blood 12 weeks post engraftment. Mice with >25% human CD45+ cells in the peripheral blood were determined to have a humanized immune system (Hu-CD34-NSG™) mice and were enrolled into the study. […] Tumor volume was measured using a digital caliper two times a week for the duration of the study. […] Statistical significance (p<0.05) was determined using a Two-way repeated measures ANOVA with Sidak's multiple comparison test.
Athymic nude mice were inoculated orthotopically with 5×10^6 MDA-MB-231 breast cancer cells into the mammary fat pad, and randomized for treatment when tumors reached an average volume of 80-120 mm^3 (N=12 in each group). […] Xenograft tumor volume was assessed using caliper measurements for 25 days. […] Xenograft tumor volume was assessed using caliper measurements for 25 days. […]

recombinant rat TrxR = target: T1, recombinant rat TrxR (Rattus norvegicus, UniProt O89049); assay: Sec-dependent TrxR activity (DTNB assay); assay type: biochemical; conditions: binding time of 4 hours (FIG. 1A)
T1 sequence (O89049 1-499): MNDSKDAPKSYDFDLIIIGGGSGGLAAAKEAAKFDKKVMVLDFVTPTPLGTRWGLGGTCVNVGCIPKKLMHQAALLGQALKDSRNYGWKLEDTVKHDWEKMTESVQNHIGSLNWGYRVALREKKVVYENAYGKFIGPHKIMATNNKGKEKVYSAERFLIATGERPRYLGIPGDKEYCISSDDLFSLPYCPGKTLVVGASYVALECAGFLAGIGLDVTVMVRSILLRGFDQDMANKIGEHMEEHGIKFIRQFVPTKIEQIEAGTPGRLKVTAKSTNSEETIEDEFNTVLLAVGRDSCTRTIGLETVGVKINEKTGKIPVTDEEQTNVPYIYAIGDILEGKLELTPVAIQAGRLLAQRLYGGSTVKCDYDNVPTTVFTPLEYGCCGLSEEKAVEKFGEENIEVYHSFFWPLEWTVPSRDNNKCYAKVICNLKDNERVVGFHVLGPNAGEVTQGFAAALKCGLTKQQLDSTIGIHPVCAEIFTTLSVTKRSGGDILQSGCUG
Protocol: Sec-dependent TrxR activity was assessed using a 5′-5-dithiobis-(2-nitrobenzoic acid) (DTNB) assay. Multiple concentrations of compounds were incubated for various time points in reaction buffer, consisting of 50 mM Tris pH 7.5 with 2 mM EDTA and 0.1 mg/mL bovine serum albumin, and containing recombinant rat TrxR and 250 μM NADPH. 2.5 mM DTNB was added to each well and TNB^− production was followed at OD412. […] The amino acid sequence of rat TrxR1 is available in Gen Bank, with accession number AAF32362.1.

SMILES | % TGI ([1]; 10 mg/kg three times a week intravenously, human immune cells from two separate donors, caliper) | mean tumor volume compared to vehicle ([1]; day 24 and 28 for CD34+ donor 5243, day 31 for donor 5252, p<0.05) | potency relative to Iniparib, TrxR C-terminal activity (recombinant rat TrxR)
CCCCCCCCS(=O)(=O)c1nc(OC)ccc1[N+](=O)[O-] [OT-1096, 6-methoxy-3-nitro-2-(octylsulfonyl)pyridine] | 45% and 55% | statistically significant | –
COc1ccc([N+](=O)[O-])c(S(=O)(=O)c2ccc(Cl)cc2)n1 [OT-1000, 2-((4-Chlorophenyl)sulfonyl)-6-methoxy-3-nitropyridine] | – | – | 1000 fold
